Reference: paper PMC6895180 (Nature Communications, 2019)
Several values for one entry are separate records, joined by “and”; a condition that tells them apart may be missing. Equal values may be shown once. Read-outs that look alike come from different tables or passages of the source.

Assays:
[1] = test system: B48: pentamidine, diminazene and melaminophenyl arsenical resistant T. brucei line; test: microbe, parasite or virus in culture; format: cell-based, Trypanosoma brucei brucei
[2] = test system: T. brucei BSF s427 wildtype cells; test: Growth assays of T. brucei (trypanocidal/trypanostatic effect); format: cell-based, Trypanosoma brucei
Method: Growth assays of T. brucei
To test the effect of the novel adenosine analogues on the growth of T. brucei BSF, s427 wildtype cells were seeded at 1×10^5 cells mL-1 in 5 mL of HMI-9 medium with 10% FBS and treated with compounds […]
cells were also incubated in drug-free medium under the same conditions. 2 μM of 2’-deoxycoformycin were added to all cultures to avoid any potential effect of serum adenosine deaminase on the activity of test compounds and cordycepin.1
Cells were manually counted in Neubauer chambers at 0, 2, 4, 6, 8, 12, 24, 36 and 48 h after addition of […]
the drugs. […]
After 6 and 12 h after addition of drugs, approximately 2×10^6 cells were harvested from each group and applied to glass slides pre-treated with poly-L-lysine, left to settle for 5 min and fixed with 4% formaldehyde for 4 min. The formaldehyde was neutralised by addition of 100 mM glycine (20 min).
Cells were washed once with PBS and blocked for 1 h with 1% BSA/0.2% Tween-20 in PBS. Cells were […]

P1 transporter = format: cell-based, Trypanosoma brucei
Method: Non-specific association of radiolabel with the cell pellet was determined using an identical incubation in the presence of saturating (1 mM) unlabelled adenosine.

T. brucei Squib 427 = test: microbe, parasite or virus in culture; format: cell-based, Trypanosoma brucei brucei

SMILES: Nc1ncnc2c1ccn2[C@@H]1O[C@H](CO)C[C@H]1O [Compound 9, 3’-deoxytubercidin]
- EC50 ([1]; Trypanosoma brucei, mean and SEM, n = 3, read-out: B48 EC50): 368 ± 13 nM
- EC50 ([1]; Trypanosoma brucei, source data, read-out: B48 EC50, single determinations): 378 nM
- EC50 ([1]; source data, read-out: B48 EC50, single determinations): 383 nM and 343 nM
- AVG of cells/mL ([2]; 2xEC50, 2 h, experiment 1): 105000 cells/mL
- Cells/mL ([2]; 2xEC50, 2 h, experiment 1): 117500 Cells/mL and 92500 Cells/mL
- Counts ([2]; 2xEC50, 2 h, experiment 1): 47 and 37
- AVG of cells/mL ([2]; 2xEC50, 2 h, experiment 2): 147500 cells/mL
- Cells/mL ([2]; 2xEC50, 2 h, experiment 2): 140000 Cells/mL and 155000 Cells/mL
- Counts ([2]; 2xEC50, 2 h, experiment 2): 56 and 62
- AVG of cells/mL ([2]; 2xEC50, 4 h, experiment 1): 158750 cells/mL
- Cells/mL ([2]; 2xEC50, 4 h, experiment 1): 160000 Cells/mL and 157500 Cells/mL
- Counts ([2]; 2xEC50, 4 h, experiment 1): 63 and 64
- AVG of cells/mL ([2]; 2xEC50, 4 h, experiment 2): 186250 cells/mL
- Cells/mL ([2]; 2xEC50, 4 h, experiment 2): 177500 Cells/mL and 195000 Cells/mL
- Counts ([2]; 2xEC50, 4 h, experiment 2): 78 and 71
- AVG of cells/mL ([2]; 2xEC50, 6 h, experiment 1): 160000 cells/mL
- Cells/mL ([2]; 2xEC50, 6 h, experiment 1): 170000 Cells/mL and 150000 Cells/mL
- Counts ([2]; 2xEC50, 6 h, experiment 1): 68 and 60
- AVG of cells/mL ([2]; 2xEC50, 6 h, experiment 2): 210000 cells/mL
- Cells/mL ([2]; 2xEC50, 6 h, experiment 2): 192500 Cells/mL and 227500 Cells/mL
- Counts ([2]; 2xEC50, 6 h, experiment 2): 77 and 91
- AVG of cells/mL ([2]; 2xEC50, 8 h, experiment 1): 167500 cells/mL
- Cells/mL ([2]; 2xEC50, 8 h, experiment 1): 162500 Cells/mL and 172500 Cells/mL
- Counts ([2]; 2xEC50, 8 h, experiment 1): 65 and 69
- AVG of cells/mL ([2]; 2xEC50, 8 h, experiment 2): 156250 cells/mL
- Cells/mL ([2]; 2xEC50, 8 h, experiment 2): 162500 Cells/mL and 150000 Cells/mL
- Counts ([2]; 2xEC50, 8 h, experiment 2): 65 and 60
- AVG of cells/mL ([2]; 2xEC50, 12 h, experiment 1): 152500 cells/mL
- Cells/mL ([2]; 2xEC50, 12 h, experiment 1): 165000 Cells/mL and 140000 Cells/mL
- Counts ([2]; 2xEC50, 12 h, experiment 1): 66 and 56
- AVG of cells/mL ([2]; 2xEC50, 12 h, experiment 2): 145000 cells/mL
- Cells/mL ([2]; 2xEC50, 12 h, experiment 2): 145000 Cells/mL
- Counts ([2]; 2xEC50, 12 h, experiment 2): 58
- AVG of cells/mL ([2]; 2xEC50, 24 h, experiment 1): 86250 cells/mL
- Cells/mL ([2]; 2xEC50, 24 h, experiment 1): 77500 Cells/mL and 95000 Cells/mL
- Counts ([2]; 2xEC50, 24 h, experiment 1): 31 and 38
- AVG of cells/mL ([2]; 2xEC50, 24 h, experiment 2): 47500 cells/mL
- Cells/mL ([2]; 2xEC50, 24 h, experiment 2): 37500 Cells/mL and 57500 Cells/mL
- Counts ([2]; 2xEC50, 24 h, experiment 2): 15 and 23
- AVG of cells/mL ([2]; 2xEC50, 36 h, experiment 1): 76250 cells/mL
- Cells/mL ([2]; 2xEC50, 36 h, experiment 1): 87500 Cells/mL and 65000 Cells/mL
- Counts ([2]; 2xEC50, 36 h, experiment 1): 35 and 26
- AVG of cells/mL ([2]; 2xEC50, 36 h, experiment 2): 6250 cells/mL
- Cells/mL ([2]; 2xEC50, 36 h, experiment 2): 7500 Cells/mL and 5000 Cells/mL
- Counts ([2]; 2xEC50, 36 h, experiment 2): 3 and 2
- Cells/mL ([2]; 2xEC50, 48 h, experiment 1): 0 Cells/mL
- Counts ([2]; 2xEC50, 48 h, experiment 1): 0
- AVG of cells/mL ([2]; 2xEC50, 48 h, experiment 2): 2500 cells/mL
- effect on T. brucei bloodstream forms in culture (cidal/static) ([2]; 2× and 5× EC50): trypanocidal
- AVG of cells/mL ([2]; 5xEC50, 2 h, experiment 1): 131250 cells/mL
- Cells/mL ([2]; 5xEC50, 2 h, experiment 1): 135000 Cells/mL and 127500 Cells/mL
- Counts ([2]; 5xEC50, 2 h, experiment 1): 54 and 51
- AVG of cells/mL ([2]; 5xEC50, 2 h, experiment 2): 135000 cells/mL
- Cells/mL ([2]; 5xEC50, 2 h, experiment 2): 127500 Cells/mL and 142500 Cells/mL
- Counts ([2]; 5xEC50, 2 h, experiment 2): 51 and 57
- AVG of cells/mL ([2]; 5xEC50, 4 h, experiment 1): 138750 cells/mL
- Cells/mL ([2]; 5xEC50, 4 h, experiment 1): 117500 Cells/mL and 160000 Cells/mL
- Counts ([2]; 5xEC50, 4 h, experiment 1): 64 and 47
- AVG of cells/mL ([2]; 5xEC50, 4 h, experiment 2): 181250 cells/mL
- Cells/mL ([2]; 5xEC50, 4 h, experiment 2): 177500 Cells/mL and 185000 Cells/mL
- Counts ([2]; 5xEC50, 4 h, experiment 2): 74 and 71
- AVG of cells/mL ([2]; 5xEC50, 6 h, experiment 1): 140000 cells/mL
- Cells/mL ([2]; 5xEC50, 6 h, experiment 1): 127500 Cells/mL and 152500 Cells/mL
- Counts ([2]; 5xEC50, 6 h, experiment 1): 51 and 61
- AVG of cells/mL ([2]; 5xEC50, 6 h, experiment 2): 145000 cells/mL
- Cells/mL ([2]; 5xEC50, 6 h, experiment 2): 135000 Cells/mL and 155000 Cells/mL
- Counts ([2]; 5xEC50, 6 h, experiment 2): 54 and 62
- AVG of cells/mL ([2]; 5xEC50, 8 h, experiment 1): 136250 cells/mL
- Cells/mL ([2]; 5xEC50, 8 h, experiment 1): 115000 Cells/mL and 157500 Cells/mL
- Counts ([2]; 5xEC50, 8 h, experiment 1): 46 and 63
- AVG of cells/mL ([2]; 5xEC50, 8 h, experiment 2): 137500 cells/mL
- Cells/mL ([2]; 5xEC50, 8 h, experiment 2): 135000 Cells/mL and 140000 Cells/mL
- Counts ([2]; 5xEC50, 8 h, experiment 2): 54 and 56
- AVG of cells/mL ([2]; 5xEC50, 12 h, experiment 1): 127500 cells/mL
- Cells/mL ([2]; 5xEC50, 12 h, experiment 1): 135000 Cells/mL and 120000 Cells/mL
- Counts ([2]; 5xEC50, 12 h, experiment 1): 54 and 48
- AVG of cells/mL ([2]; 5xEC50, 12 h, experiment 2): 125000 cells/mL
- Cells/mL ([2]; 5xEC50, 12 h, experiment 2): 125000 Cells/mL
- Counts ([2]; 5xEC50, 12 h, experiment 2): 50
- AVG of cells/mL ([2]; 5xEC50, 24 h, experiment 1): 47500 cells/mL
- Cells/mL ([2]; 5xEC50, 24 h, experiment 1): 45000 Cells/mL and 50000 Cells/mL
- Counts ([2]; 5xEC50, 24 h, experiment 1): 18 and 20
- AVG of cells/mL ([2]; 5xEC50, 24 h, experiment 2): 25000 cells/mL
- Cells/mL ([2]; 5xEC50, 24 h, experiment 2): 27500 Cells/mL and 22500 Cells/mL
- Counts ([2]; 5xEC50, 24 h, experiment 2): 11 and 9
- AVG of cells/mL ([2]; 5xEC50, 36 h, experiment 1): 22500 cells/mL
- Cells/mL ([2]; 5xEC50, 36 h, experiment 1): 25000 Cells/mL and 20000 Cells/mL
- Counts ([2]; 5xEC50, 36 h, experiment 1): 10 and 8
- AVG of cells/mL ([2]; 5xEC50, 36 h, experiment 2): 3750 cells/mL
- Cells/mL ([2]; 5xEC50, 36 h, experiment 2): 5000 Cells/mL and 2500 Cells/mL
- Counts ([2]; 5xEC50, 36 h, experiment 2): 2 and 1
- Cells/mL ([2]; 5xEC50, 48 h, experiment 1): 0 Cells/mL
- Counts ([2]; 5xEC50, 48 h, experiment 1): 0
- AVG of cells/mL ([2]; 5xEC50, 48 h, experiment 2): 0 cells/mL
- Cells/mL ([2]; 5xEC50, 48 h, experiment 2): 0 Cells/mL
- Counts ([2]; 5xEC50, 48 h, experiment 2): 0
- Ki (P1 transporter; inhibition of [3H]adenosine uptake, mean ± SEM, n = 3, read-out: P1 transporter Ki): 99900 ± 21700 nM
- Ki (P1 transporter; source data, read-out: P1 transporter Ki, AVG): 108000 nM
- EC50 (T. brucei Squib 427; Trypanosoma brucei, Alamar blue cell viability assay, mean and SEM, read-out: T. b. brucei EC50): 48 ± 9 nM
- EC50 (T. brucei Squib 427; Trypanosoma brucei, source data, read-out: T. brucei brucei EC50, Average): 47.7 nM
- EC50 (T. brucei Squib 427; Trypanosoma brucei, source data, read-out: T. brucei brucei EC50, single measurements): 39.9 nM
- SI (MRC/T.b. brucei) (T. brucei Squib 427; selectivity index): >1333
- EC50 (T. brucei Squib 427; source data, read-out: T. brucei brucei EC50, single measurements): 65.2 nM and 38 nM
